Experimental data from ChEMBL document CHEMBL1201861, “Genomics of Drug Sensitity in Cancer screening data, Wellcome Trust Sanger Institute”.
pIC50: −log10 of the molar value.

How the values were obtained:
SIMA = assay: cells; assay type: functional, cell-based, Homo sapiens; conditions: Homo sapiens, SIMA;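 also: growth inhibition of SIMA cells, measured with a cell viability readout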
Description: SANGER: Inhibition of human SIMA cell growth in a cell viability assay.

NCI-H2052 = assay: cells; assay type: functional, cell-based; conditions: Homo sapiens;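 also: growth inhibition of NCI-H2052 cells, read out with a cell viability assay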
Description: SANGER: Inhibition of human NCI-H2052 cell growth in a cell viability assay.

SW1783 = assay: cells; assay type: functional, cell-based; conditions: Homo sapiens
Description: SANGER: Inhibition of human SW1783 cell growth in a cell viability assay.

SN12C = assay: cells; assay type: functional, cell-based; conditions: Homo sapiens;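 also: growth inhibition of human SN12C cells, measured by a cell viability assay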
Description: SANGER: Inhibition of human SN12C cell growth in a cell viability assay.

EFO-27 = assay: cells; assay type: functional, cell-based; conditions: Homo sapiens;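 also: growth inhibition of EFO-27 cells, read out with a cell viability assay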
Description: SANGER: Inhibition of human EFO-27 cell growth in a cell viability assay.

LC-1F = assay: cells; assay type: functional, cell-based, Homo sapiens; conditions: Homo sapiens, LC-1F;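 also: growth inhibition of human LC-1F cells, read out with a cell viability assay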
Description: SANGER: Inhibition of human LC-1F cell growth in a cell viability assay.

BEN = assay: cells; assay type: functional, cell-based; conditions: Homo sapiens;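 also: growth inhibition of the BEN cell line, read out with a cell viability assay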
Description: SANGER: Inhibition of human BEN cell growth in a cell viability assay.

SCC-3 = assay: cells; assay type: functional, cell-based, Homo sapiens; conditions: Homo sapiens, SCC-3;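 also: cell viability assay measuring inhibition of SCC-3 cell growth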
Description: SANGER: Inhibition of human SCC-3 cell growth in a cell viability assay.

C-33-A = assay: cells; assay type: functional, cell-based; conditions: Homo sapiens;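 also: cell viability assay measuring growth inhibition of C-33-A cells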
Description: SANGER: Inhibition of human C-33-A cell growth in a cell viability assay.

CWR22R = assay: cells; assay type: functional, cell-based; conditions: Homo sapiens, 22Rv1;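 also: growth inhibition of 22Rv1 cells, read out with a cell viability assay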
Description: SANGER: Inhibition of human 22RV1 cell growth in a cell viability assay.

LB373-MEL-D = assay: cells; assay type: functional, cell-based, Homo sapiens; conditions: Homo sapiens, LB373-MEL-D;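 also: growth inhibition of the cell line, read out in a cell viability assay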
Description: SANGER: Inhibition of human LB373-MEL-D cell growth in a cell viability assay.

MHH-CALL-2 = assay: cells; assay type: functional, cell-based, Homo sapiens; conditions: Homo sapiens, MHH-CALL-2;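 also: growth inhibition of the cell line, read out in a cell viability assay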
Description: SANGER: Inhibition of human MHH-CALL-2 cell growth in a cell viability assay.

WM-115 = assay: cells; assay type: functional, cell-based; conditions: Homo sapiens
Description: SANGER: Inhibition of human WM-115 cell growth in a cell viability assay.

Hs-578T = assay: cells; assay type: functional, cell-based; conditions: Homo sapiens
Description: SANGER: Inhibition of human Hs-578-T cell growth in a cell viability assay.

SR = assay: cells; assay type: functional, cell-based, Homo sapiens; conditions: Homo sapiens, SR
Description: SANGER: Inhibition of human SR cell growth in a cell viability assay.

YKG-1 = assay: cells; assay type: functional, cell-based; conditions: Homo sapiens;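 also: cell growth inhibition, read out with a viability assay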
Description: SANGER: Inhibition of human YKG-1 cell growth in a cell viability assay.

SK-HEP1 = assay: cells; assay type: functional, cell-based, SK-HEP-1; conditions: Homo sapiens;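 also: cell viability readout used to quantify reduction in proliferation of human SK-HEP-1 cells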
Description: SANGER: Inhibition of human SK-HEP-1 cell growth in a cell viability assay.

NCI-H1993 = assay: cells; assay type: functional, cell-based; conditions: Homo sapiens;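 also: growth inhibition of the cancer cell line, assessed with a cell viability assay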
Description: SANGER: Inhibition of human NCI-H1993 cell growth in a cell viability assay.

BC1 cell line = assay: SANGER: Inhibition of human BC-1 cell growth in a cell viability assay.; assay type: functional, cell-based; conditions: Homo sapiens, BC1
OAW-42 = assay: cells; assay type: functional, cell-based; conditions: Homo sapiens;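 also: growth inhibition of OAW-42 cells, read out with a cell viability assay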
Description: SANGER: Inhibition of human OAW-42 cell growth in a cell viability assay.

EFO-21 = assay: cells; assay type: functional, cell-based; conditions: Homo sapiens;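 also: growth inhibition of EFO-21 cells measured with a viability assay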
Description: SANGER: Inhibition of human EFO-21 cell growth in a cell viability assay.

NCI-H1694 = assay: cells; assay type: functional, cell-based, Homo sapiens; conditions: Homo sapiens, NCI-H1694;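 also: cell viability assay measuring inhibition of growth in human NCI-H1694 cells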
Description: SANGER: Inhibition of human NCI-H1694 cell growth in a cell viability assay.

JIYOYE = assay: cells; assay type: functional, cell-based, Homo sapiens; conditions: Homo sapiens, JIYOYE
Description: SANGER: Inhibition of human JiyoyeP-2003 cell growth in a cell viability assay.

NCI-H1693 = assay: cells; assay type: functional, cell-based; conditions: Homo sapiens;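 also: growth inhibition of the human cell line, read out with a cell viability assay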
Description: SANGER: Inhibition of human NCI-H1693 cell growth in a cell viability assay.

HCT-116 = assay: cells; assay type: functional, cell-based; conditions: Homo sapiens
Description: SANGER: Inhibition of human HCT-116 cell growth in a cell viability assay.

CAL-85-1 = assay: cells; assay type: functional, cell-based; conditions: Homo sapiens;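 also: growth inhibition of human CAL-85-1 cells, read out with a cell viability assay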
Description: SANGER: Inhibition of human CAL-85-1 cell growth in a cell viability assay.

HT1197 = assay: cells; assay type: functional, cell-based, HT-1197; conditions: Homo sapiens
Description: SANGER: Inhibition of human HT-1197 cell growth in a cell viability assay.

SW1573 = assay: cells; assay type: functional, cell-based; conditions: Homo sapiens;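 also: growth inhibition of SW1573 cells, read out with a cell viability assay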
Description: SANGER: Inhibition of human SW1573 cell growth in a cell viability assay.

U-698-M = assay: cells; assay type: functional, cell-based, Homo sapiens; conditions: Homo sapiens, U-698-M
Description: SANGER: Inhibition of human U-698-M cell growth in a cell viability assay.

SK-MM-2 = assay: cells; assay type: functional, cell-based, Homo sapiens; conditions: Homo sapiens, SK-MM-2;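 also: growth inhibition of human SK-MM-2 cells, read out with a cell viability assay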
Description: SANGER: Inhibition of human SK-MM-2 cell growth in a cell viability assay.

S-117 = assay: cells; assay type: functional, cell-based; conditions: Homo sapiens
Description: SANGER: Inhibition of human S-117 cell growth in a cell viability assay.

TALL-1 = assay: cells; assay type: functional, cell-based, Homo sapiens; conditions: Homo sapiens, TALL-1;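 also: growth inhibition of cultured human TALL-1 cells, read out by a cell viability assay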
Description: SANGER: Inhibition of human TALL-1 cell growth in a cell viability assay.

NCI-H1573 = assay: cells; assay type: functional, cell-based; conditions: Homo sapiens;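 also: growth inhibition of NCI-H1573 cells, read out with a cell viability assay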
Description: SANGER: Inhibition of human NCI-H1573 cell growth in a cell viability assay.

PA-1 = assay: cells; assay type: functional, cell-based; conditions: Homo sapiens;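 also: IC50 for suppression of PA-1 cell proliferation, determined with a cell viability read-out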
Description: SANGER: Inhibition of human PA-1 cell growth in a cell viability assay.

NCI-H1792 = assay: cells; assay type: functional, cell-based; conditions: Homo sapiens;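 also: growth inhibition of human NCI-H1792 cells, read out as cell viability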
Description: SANGER: Inhibition of human NCI-H1792 cell growth in a cell viability assay.

8505C = assay: cells; assay type: functional, cell-based; conditions: Homo sapiens
Description: SANGER: Inhibition of human 8505C cell growth in a cell viability assay.

NCI-H1651 = assay: cells; assay type: functional, cell-based; conditions: Homo sapiens;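 also: Read-out is a cell viability assay, with IC50 expressing inhibition of NCI-H1651 cell growth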
Description: SANGER: Inhibition of human NCI-H1651 cell growth in a cell viability assay.

A-431 = assay: cells; assay type: functional, cell-based; conditions: Homo sapiens;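 also: growth inhibition of A-431 cells, determined with a cell viability read-out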
Description: SANGER: Inhibition of human A431 cell growth in a cell viability assay.

SNU-C1 = assay: cells; assay type: functional, cell-based, Homo sapiens; conditions: Homo sapiens, SNU-C1;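 also: growth inhibition of SNU-C1 human cells, read out by a cell viability assay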
Description: SANGER: Inhibition of human SNU-C1 cell growth in a cell viability assay.

A204 = assay: cells; assay type: functional, cell-based; conditions: Homo sapiens;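 also: growth inhibition of human A204 cells, read out with a cell viability assay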
Description: SANGER: Inhibition of human A204 cell growth in a cell viability assay.

AGS = assay: cells; assay type: functional, cell-based; conditions: Homo sapiens;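 also: growth inhibition of AGS cells, determined with a cell viability assay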
Description: SANGER: Inhibition of human AGS cell growth in a cell viability assay.

HT-1080 = assay: cells; assay type: functional, cell-based; conditions: Homo sapiens
Description: SANGER: Inhibition of human HT-1080 cell growth in a cell viability assay.

769-P = assay: cells; assay type: functional, cell-based; conditions: Homo sapiens
Description: SANGER: Inhibition of human 769-P cell growth in a cell viability assay.

T-24 = assay: cells; assay type: functional, cell-based; conditions: Homo sapiens;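 also: growth inhibition of T-24 cells, read out with a cell viability assay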
Description: SANGER: Inhibition of human T-24 cell growth in a cell viability assay.

HCC1937 = assay: cells; assay type: functional, cell-based; conditions: Homo sapiens;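 also: growth inhibition measured with a cell viability read-out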
Description: SANGER: Inhibition of human HCC1937 cell growth in a cell viability assay.

ASPC1 = assay: cells; assay type: functional, cell-based; conditions: Homo sapiens;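 also: growth inhibition of AsPC-1 cells, read out with a cell viability assay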
Description: SANGER: Inhibition of human AsPC-1 cell growth in a cell viability assay.

HC-1 = assay: cells; assay type: functional, cell-based, Homo sapiens; conditions: Homo sapiens, HC-1;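 also: growth inhibition of HC-1 cells measured by a cell viability assay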
Description: SANGER: Inhibition of human HC-1 cell growth in a cell viability assay.

HMV-2 cell line = assay: cells; assay type: functional, cell-based; conditions: Homo sapiens;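 also: growth inhibition of HMV-II cells, read out with a cell viability assay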
Description: SANGER: Inhibition of human HMV-II cell growth in a cell viability assay.

MKN-1 = assay: cells; assay type: functional, cell-based; conditions: Homo sapiens;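 also: growth inhibition of human MKN1 cells, read out by a cell viability measurement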
Description: SANGER: Inhibition of human MKN1 cell growth in a cell viability assay.

BOKU = assay: cells; assay type: functional, cell-based; conditions: Homo sapiens;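 also: growth inhibition of the human BOKU cell line, read out by a cell viability assay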
Description: SANGER: Inhibition of human BOKU cell growth in a cell viability assay.

H4 = assay: cells; assay type: functional, cell-based; conditions: Homo sapiens
Description: SANGER: Inhibition of human H4 cell growth in a cell viability assay.

LN-405 = assay: cells; assay type: functional, cell-based; conditions: Homo sapiens
Description: SANGER: Inhibition of human LN-405 cell growth in a cell viability assay.

HuO-3N1 = assay: cells; assay type: functional, cell-based; conditions: Homo sapiens;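 also: cell viability readout used to measure how strongly compounds suppress proliferation of human HuO-3N1 cells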
Description: SANGER: Inhibition of human HuO-3N1 cell growth in a cell viability assay.

MDA-MB-361 = assay: cells; assay type: functional, cell-based; conditions: Homo sapiens
BPH-1 = assay: cells; assay type: functional, cell-based; conditions: Homo sapiens;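 also: cell viability assay measuring growth inhibition of human BPH-1 cells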
Description: SANGER: Inhibition of human BPH-1 cell growth in a cell viability assay.

SW1463 = assay: cells; assay type: functional, cell-based; conditions: Homo sapiens;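 also: growth inhibition of SW1463 cells, determined with a cell viability assay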
Description: SANGER: Inhibition of human SW1463 cell growth in a cell viability assay.

NCI-H1522 = assay: cells; assay type: functional, cell-based, Homo sapiens; conditions: Homo sapiens, NCI-H1522;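 also: growth inhibition of NCI-H1522 cells, read out with a cell viability assay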
Description: SANGER: Inhibition of human NCI-H1522 cell growth in a cell viability assay.

MDA-MB-134-VI = assay: cells; assay type: functional, cell-based, Homo sapiens; conditions: Homo sapiens, MDA-MB-134-VI
Description: SANGER: Inhibition of human MDA-MB-134-VI cell growth in a cell viability assay.

`CCCCCCCCCCCC1=C(O)C(=O)C=C(O)C1=O` [EMBELIN] gave a pIC50 (SIMA) of 5.20, a pIC50 (NCI-H2052) of 5.07 and a pIC50 (SW1783) of 5.00. The pIC50 (SN12C) was 4.58, the pIC50 (EFO-27) was < 4.49 and the pIC50 (LC-1F) was 4.51. For the same compound, the pIC50 (BEN) was < 4.49, the pIC50 (SCC-3) was < 4.49 and the pIC50 (C-33-A) was < 4.49. For the same compound, the pIC50 (CWR22R) was 4.65, the pIC50 (LB373-MEL-D) was 4.62 and the pIC50 (MHH-CALL-2) was < 4.49. It also gave a pIC50 (WM-115) of 4.86, a pIC50 (Hs-578T) of 4.95 and a pIC50 (SR) of 4.55. For the same compound, the pIC50 (YKG-1) was 5.05, the pIC50 (SK-HEP1) was 5.02 and the pIC50 (NCI-H1993) was < 4.49. The pIC50 (BC1 cell line) was 5.30, the pIC50 (OAW-42) was < 4.49 and the pIC50 (EFO-21) was 4.81. The pIC50 (NCI-H1694) was < 4.49, the pIC50 (JIYOYE) was 5.16 and the pIC50 (NCI-H1693) was < 4.49. For the same compound, the pIC50 (HCT-116) was 4.54, the pIC50 (CAL-85-1) was 5.11 and the pIC50 (HT1197) was 4.60. The pIC50 (SW1573) was < 4.49, the pIC50 (U-698-M) was 4.60 and the pIC50 (SK-MM-2) was < 4.49. For the same compound, the pIC50 (S-117) was 5.44, the pIC50 (TALL-1) was < 4.49 and the pIC50 (NCI-H1573) was 4.85. The pIC50 (PA-1) was 5.63, the pIC50 (NCI-H1792) was 4.64 and the pIC50 (8505C) was 4.85. The pIC50 (NCI-H1651) was 5.22, the pIC50 (A-431) was 5.24 and the pIC50 (SNU-C1) was 4.99. It also gave a pIC50 (A204) of 4.76, a pIC50 (AGS) of 5.06 and a pIC50 (HT-1080) of 5.32. The pIC50 (769-P) was 5.07, the pIC50 (T-24) was < 4.49 and the pIC50 (HCC1937) was 5.06. The pIC50 (ASPC1) was < 4.49, the pIC50 (HC-1) was 5.27 and the pIC50 (HMV-2 cell line) was 5.34. For the same compound, the pIC50 (MKN-1) was 4.91, the pIC50 (BOKU) was 4.97 and the pIC50 (H4) was 5.38. For the same compound, the pIC50 (LN-405) was 4.72, the pIC50 (HuO-3N1) was < 4.49 and the pIC50 (MDA-MB-361) was 4.71. For the same compound, the pIC50 (BPH-1) was < 4.49, the pIC50 (SW1463) was < 4.49 and the pIC50 (NCI-H1522) was 4.51. The pIC50 (MDA-MB-134-VI) was < 4.49.
For `COc1ccc(-c2cc3nccn3c(Nc3ncccc3C(N)=O)n2)cc1OC`, the pIC50 (SIMA) was 5.14, the pIC50 (NCI-H2052) was < 5.10 and the pIC50 (SW1783) was < 5.10. For the same compound, the pIC50 (SN12C) was < 5.10, the pIC50 (EFO-27) was 5.69 and the pIC50 (LC-1F) was < 5.10. The pIC50 (BEN) was < 5.10, the pIC50 (SCC-3) was 5.12 and the pIC50 (C-33-A) was 5.60. The pIC50 (CWR22R) was < 5.10, the pIC50 (LB373-MEL-D) was < 5.10 and the pIC50 (MHH-CALL-2) was < 5.10. For the same compound, the pIC50 (WM-115) was < 5.10, the pIC50 (Hs-578T) was < 5.10 and the pIC50 (SR) was 6.26. For the same compound, the pIC50 (YKG-1) was 5.58, the pIC50 (SK-HEP1) was 5.74 and the pIC50 (NCI-H1993) was < 5.10. For the same compound, the pIC50 (BC1 cell line) was 5.97, the pIC50 (OAW-42) was < 5.10 and the pIC50 (EFO-21) was < 5.10. For the same compound, the pIC50 (NCI-H1694) was < 5.10, the pIC50 (JIYOYE) was 5.81 and the pIC50 (NCI-H1693) was < 5.10. For the same compound, the pIC50 (HCT-116) was 5.40, the pIC50 (CAL-85-1) was 5.48 and the pIC50 (HT1197) was < 5.10. The pIC50 (SW1573) was < 5.10, the pIC50 (U-698-M) was 5.99 and the pIC50 (SK-MM-2) was < 5.10. The pIC50 (S-117) was < 5.10, the pIC50 (TALL-1) was < 5.10 and the pIC50 (NCI-H1573) was < 5.10. For the same compound, the pIC50 (PA-1) was 6.00, the pIC50 (NCI-H1792) was < 5.10 and the pIC50 (8505C) was 5.75. The pIC50 (NCI-H1651) was 5.38, the pIC50 (A-431) was 5.76 and the pIC50 (SNU-C1) was < 5.10. The pIC50 (A204) was < 5.10, the pIC50 (AGS) was < 5.10 and the pIC50 (HT-1080) was 5.49. The pIC50 (769-P) was 6.01, the pIC50 (T-24) was < 5.10 and the pIC50 (HCC1937) was < 5.10. The pIC50 (ASPC1) was < 5.10, the pIC50 (HC-1) was 6.12 and the pIC50 (HMV-2 cell line) was 6.18. For the same compound, the pIC50 (MKN-1) was 5.14, the pIC50 (BOKU) was < 5.10 and the pIC50 (H4) was < 5.10. For the same compound, the pIC50 (LN-405) was < 5.10, the pIC50 (HuO-3N1) was < 5.10 and the pIC50 (MDA-MB-361) was < 5.10. The pIC50 (BPH-1) was 5.70, the pIC50 (SW1463) was < 5.10 and the pIC50 (NCI-H1522) was < 5.10. The pIC50 (MDA-MB-134-VI) was < 5.10.
